The text below walks through data of the NIST ThermoML archive (doi:10.1021/je8002223).

± gives the expanded uncertainty stated by the source.

The conditions of data set [1]: DTA.
Data set [2] is described as follows: Molar enthalpy of transition or fusion.

As to `[Cl][Ce]([Cl])[Cl]` [cerium trichloride], the Normal melting temperature in data set [1] (Crystal) is 813 ± 2 °C. In addition, the “Molar enthalpy of transition or fusion” value in data set [2] (Crystal) is 13.3 ± 1.43 kcal/mol.
Take `[Cl-].[Cs+]` [cesium chloride]: the Triple point temperature in data set [1] (Crystal 1) is on record as 918 ± 2 K; in data set [1] (Crystal 2), 743 ± 2 K. Further, the “Molar enthalpy of transition or fusion” value in data set [2] (Crystal 1) is 4.85 ± 0.574 kcal/mol; in data set [2] (Crystal 2), 0.908 ± 0.191 kcal/mol.
